Assay [1] addresses T1, sGC α1/β1 heterodimer stably expressed in CHO-K1 cells (CHO-K1/sGC) (Homo sapiens, UniProt Q02108+Q02153).
T1 construct: expressed in transfected cells
T1 sequence (Q02108 1-690): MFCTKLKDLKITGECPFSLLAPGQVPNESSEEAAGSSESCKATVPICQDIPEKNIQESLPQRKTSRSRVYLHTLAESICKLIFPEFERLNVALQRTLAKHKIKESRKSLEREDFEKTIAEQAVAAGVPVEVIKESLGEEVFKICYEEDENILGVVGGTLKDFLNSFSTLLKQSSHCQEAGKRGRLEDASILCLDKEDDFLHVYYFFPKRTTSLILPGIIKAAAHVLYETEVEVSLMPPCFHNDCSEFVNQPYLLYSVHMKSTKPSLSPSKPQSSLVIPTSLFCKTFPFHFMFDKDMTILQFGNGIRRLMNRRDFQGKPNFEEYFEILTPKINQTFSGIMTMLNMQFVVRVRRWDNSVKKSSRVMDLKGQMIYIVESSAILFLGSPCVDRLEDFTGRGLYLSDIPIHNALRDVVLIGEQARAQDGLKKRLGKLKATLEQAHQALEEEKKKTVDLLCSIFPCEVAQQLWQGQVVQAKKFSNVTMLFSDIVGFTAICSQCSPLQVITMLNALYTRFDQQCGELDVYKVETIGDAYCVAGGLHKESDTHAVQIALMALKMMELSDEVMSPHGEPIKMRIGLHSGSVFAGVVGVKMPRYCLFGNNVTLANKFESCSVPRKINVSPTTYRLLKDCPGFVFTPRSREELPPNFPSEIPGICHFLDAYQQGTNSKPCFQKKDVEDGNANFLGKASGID
T1 sequence (Q02153 1-619): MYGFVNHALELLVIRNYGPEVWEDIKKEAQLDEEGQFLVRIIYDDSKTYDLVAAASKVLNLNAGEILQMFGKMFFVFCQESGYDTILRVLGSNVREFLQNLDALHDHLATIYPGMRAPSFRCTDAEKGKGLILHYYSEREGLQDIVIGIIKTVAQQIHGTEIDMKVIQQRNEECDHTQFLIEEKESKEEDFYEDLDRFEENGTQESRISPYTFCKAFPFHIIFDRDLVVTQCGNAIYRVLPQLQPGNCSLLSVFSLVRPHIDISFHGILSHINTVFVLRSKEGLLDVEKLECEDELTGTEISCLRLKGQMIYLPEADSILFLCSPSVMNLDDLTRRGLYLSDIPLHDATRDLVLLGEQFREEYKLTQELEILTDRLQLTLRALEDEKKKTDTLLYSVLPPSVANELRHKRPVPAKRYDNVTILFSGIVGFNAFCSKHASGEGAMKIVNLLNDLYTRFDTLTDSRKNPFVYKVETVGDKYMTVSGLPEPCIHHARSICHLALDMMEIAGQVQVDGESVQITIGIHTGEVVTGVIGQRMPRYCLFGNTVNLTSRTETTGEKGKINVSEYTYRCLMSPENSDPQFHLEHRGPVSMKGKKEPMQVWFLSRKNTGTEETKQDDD
The experiment in a line: Cell-based sGC functional assay (CASA assay), cGMP generation by HTRF. Conditions: for Emax: CHO-K1, maximum cGMP production of Compound A set to 100% activation, read-out: % Act. (percent activation relative to Compound A); for EC50: CHO-K1/sGC cells, 1 hr at 37° C., 4P fit, presence or absence of DETA-NO not given, read-out: IP (nM) (inflection point). An outline of the steps: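 CHO-K1/sGC cells (4×10^5/mL) in EBSS with 5 mM MgCl2, 10 mM HEPES, 0.05% BSA and 0.5 mM IBMX, treated 1 hr at 37° C with compounds (2.5% DMSO) with or without 1 μM DETA-NO. cGMP measured by HTRF, expressed as % of a reference heme-dependent activator's maximum; inflection point and fold induction from 4P fit.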
(In general: Time-resolved FRET reads energy transfer from a long-lived donor to a nearby acceptor.)

Assay [2] relates to systolic blood pressure in spontaneously hypertensive rats. The experiment in a line: Acute efficacy in spontaneously hypertensive rats (SHR), telemetry blood pressure. It counts as in vivo, rat. From the text: Acute Efficacy in Spontaneously Hypertensive Rats (SHR)
Spontaneously hypertensive rats (SHR, male, Charles River) were implanted with DSI TA11 PA-C40 telemetry device (Data Sciences, Inc., St. Paul, Minn.) under isoflurane or ketamine/metomidine anesthesia. The telemetry unit catheter was inserted into the descending aorta via the femoral artery and the telemetry device was implanted subcutaneously in the left flank area. Animals were allowed to recover from surgery for 14 days before the start of any studies. Blood pressure, heart rate, and activity signals from conscious, freely moving rats were recorded continuously for 30 seconds every 10 minutes. On the day prior to administration of compound, a single oral dose of vehicle (10% transcutol/20% Cremophor/70% water) was administered to all animals to establish baseline control data. The blood pressure lowering efficacy of compound (PO) or vehicle was evaluated following a single oral gavage. Data were collected as hourly averages, and changes in blood pressure were calculated by subtracting control baseline data on an hourly basis. Animals were maintained on normal diet with a 12 hour light-dark cycle.
Maximum peak decreases of systolic blood pressure (SBP) in SHR at a particular P.O. dose (mpk milligrams per kilogram) for the following representative compounds are provided below in Table 6.
Category A=SBP in SHRs <20 mmHg; Category B=SBP in SHRs 20-40 mmHg;
Category C=SBP in SHRs >40 mmHg

Regarding `CC1(c2ccc(F)cc2)C(=O)Nc2nc(-c3cn4ccnc4c(OCC(F)(F)C(F)(F)F)n3)nc(N)c21` (stereo not drawn) [Example 2A, 4-amino-5-(4-fluorophenyl)-5-methyl-2-[8-(2,2,3,3,3-pentafluoropropoxy)imidazo[1,2-a]pyrazin-6-yl]-5,7-dihydro-6H-pyrrolo[2,3-d]pyrimidin-6-one], in assay [1], the Emax is 127% and the EC50 worked out at 317 nM. Moreover, in assay [2] (single oral dose 3.0 mpk P.O.), the “Maximum peak decrease of systolic blood pressure (SBP), Category” value (shortened to “Maximum peak decrease”) was “B (Category B=SBP in SHRs 20-40 mmHg)”.

In the case of `CC1(c2ccc(F)cc2)C(=O)Nc2nc(-c3cn4ccnc4c(NCC(F)(F)C(F)(F)F)n3)nc(N)c21` (stereo not drawn) [Example 34A, 4-amino-5-(4-fluorophenyl)-5-methyl-2-{8-[(2,2,3,3,3-pentafluoropropyl)amino]imidazo [1,2-a]pyrazin-6-yl}-5,7-dihydro-6H-pyrrolo[2,3-d] pyrimidin-6-one], in assay [1], the Emax came out at 117% and the EC50 came out at 164 nM. Further, in assay [2] (single oral dose 3.0 mpk P.O.), the “Maximum peak decrease” value was “A (Category A=SBP in SHRs <20 mmHg)”.

Turning to `CC1(c2ccc(F)cc2)C(=O)Nc2nc(-c3cn4ccnc4c(Oc4cccc(F)c4)n3)nc(N)c21` (stereo not drawn) [Example 1A, 4-Amino-2-[8-(3-fluorophenoxy)imidazo[1,2-a]pyrazin-6-yl]-5-(4-fluorophenyl)-5-methyl-5,7-dihydro-6H-pyrrolo[2,3-d]pyrimidin-6-one], in assay [1], the Emax was 110% and the EC50 is 17 nM. Also, in assay [2] (single oral dose 0.3 mpk P.O.), the “Maximum peak decrease” value was “B (Category B=SBP in SHRs 20-40 mmHg)”.

The values are drawn from patent US10245264B2, “Substituted imidazo[1,2-a]pyrazines as soluble guanylate cyclase activators” (Merck Sharp & Dohme Corp., priority 2015, dated 2019).
